Data as given in US12377104B1, “Methods for treating a fatty liver disease” (Madrigal Pharmaceuticals, Inc., priority 2024, dated 2025).

Experiments:
CYP2C8 = molecular target: T1, CYP2C8 (Homo sapiens, UniProt P10632); experiment: Concomitant use with a CYP2C8 inhibitor; design: from tissue; host or cells: human subjects in vivo (endogenous enzyme); settings: in vivo
T1 sequence (P10632 1-490): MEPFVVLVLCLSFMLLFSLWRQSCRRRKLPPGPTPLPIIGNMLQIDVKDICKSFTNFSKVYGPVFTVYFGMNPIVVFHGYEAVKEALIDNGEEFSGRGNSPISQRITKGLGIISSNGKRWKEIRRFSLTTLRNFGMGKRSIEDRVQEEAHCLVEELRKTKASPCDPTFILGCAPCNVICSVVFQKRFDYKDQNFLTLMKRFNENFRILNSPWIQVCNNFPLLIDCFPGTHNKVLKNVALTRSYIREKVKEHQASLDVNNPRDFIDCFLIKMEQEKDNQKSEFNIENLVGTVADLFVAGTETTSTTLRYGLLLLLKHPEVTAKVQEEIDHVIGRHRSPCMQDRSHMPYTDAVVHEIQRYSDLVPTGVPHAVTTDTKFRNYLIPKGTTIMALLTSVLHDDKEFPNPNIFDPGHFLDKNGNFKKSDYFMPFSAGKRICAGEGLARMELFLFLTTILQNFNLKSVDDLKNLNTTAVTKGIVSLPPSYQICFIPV

NASH patients = experiment: Exposure-response: probability of NASH resolution or fibrosis response by Cave,ss; assay type: in vivo, human
Experimental: Various body weight cutoffs for dosing were evaluated.
Study median body weight was 100 kg. […] Study median BMI was 35 kg/m^2.

[1] = test system: NASH patients with fibrosis stage F1A or F1C; experiment: MAESTRO-NASH: exploratory F1 (F1A/F1C) population, endpoints and safety
[2] = Excretion after 100 mg radio-labeled oral dose; assay type: in vivo, human
Text: A metabolite MGL-3623 accounted for 3.3% and 16% of the dose recovered in feces and urine, respectively.

Which “effect of concomitant CYP2C8 inhibitor on exposure” value (CYP2C8) does the source give for `CC(C)c1cc(Oc2c(Cl)cc(-n3nc(C#N)c(=O)[nH]c3=O)cc2Cl)n[nH]c1=O` [Resmetirom, 2-(3,5-dichloro-4-((5-isopropyl-6-oxo-1,6-dihydropyridazin-3-yl)oxy)phenyl)-3,5-dioxo-2,3,4,5-tetrahydro-1,2,4-triazine-6-carbonitrile] here?
The value was “increase resmetirom Cmax and AUC”.

And the “Estimated Probability of response (NASH resolution or fibrosis response)” value (“Estimated Probability of response” below) (NASH patients; Cave,ss Q1: [20-155))?
Its value is 33.6%.

What about the “Observed Probability of response (NASH resolution or fibrosis response)” value (shortened to “Observed Probability of response”) (NASH patients; Cave,ss Q1: [20-155)) of the same compound?
The value was 45.5%.

What about the “Estimated Probability of response” value (NASH patients; Cave,ss Q2: [155-219)) of the same compound?
The value was 37.3%.

And the “Observed Probability of response” value (NASH patients; Cave,ss Q2: [155-219))?
Its value is 44.0%.

And the “Estimated Probability of response” value (NASH patients; Cave,ss Q3: [219-321))?
The value was 41.9%.

And the “Observed Probability of response” value (NASH patients; Cave,ss Q3: [219-321))?
The value was 41.8%.

What about the “Estimated Probability of response” value (NASH patients; Cave,ss Q4: [321-1326]) of the same compound?
The value was 56.2%.

And the “Observed Probability of response” value (NASH patients; Cave,ss Q4: [321-1326])?
The value was 55.0%.

And the “Mean Cave,ss” value (NASH patients; Q1: [20-155))?
The value was 120 ng/mL.

And the “Mean Cave,ss” value (NASH patients; Q2: [155-219))?
The value was 186 ng/mL.

And the “Mean Cave,ss” value (NASH patients; Q3: [219-321))?
Its value is 263 ng/mL.

And the “Mean Cave,ss” value (NASH patients; Q4: [321-1326])?
The value was 495 ng/mL.

And the “Any Serious TEAE, %” value ([1]; 80 mg)?
The value was “(20.0) %”.

What about the “Any TEAEs leading to Study Discontinuation, %” value ([1]; 80 mg) of the same compound?
The value was “(13.3) %”.

And the “TEAE Grade 1, %” value ([1]; 80 mg)?
Its value is “(20.0) %”.

And the “TEAE Grade 2, %” value ([1]; 80 mg)?
The value was “(53.3) %”.

And the “TEAE Grade 3, %” value ([1]; 80 mg)?
The value was “(16.7) %”.

What about the “Any TEAE, %” value ([1]; 80 mg (N = 30)) of the same compound?
The value was “(93.3) %”.

And the Fibrosis improvement endpoint ([1]; 80 mg (N = 30))?
Its Fibrosis improvement endpoint is 21.7%.

And the Nash resolution endpoint ([1]; 80 mg (N = 30))?
The Nash resolution endpoint was 38.3%.

What about the “Any Serious TEAE, %” value ([1]; 100 mg) of the same compound?
The value was “(23.1) %”.

And the “Any TEAEs leading to Study Discontinuation, %” value ([1]; 100 mg)?
Its value is “(11.5) %”.

And the “TEAE Grade 1, %” value ([1]; 100 mg)?
Its value is “(19.2) %”.

And the “TEAE Grade 2, %” value ([1]; 100 mg)?
The value was “(46.2) %”.

And the “TEAE Grade 3, %” value ([1]; 100 mg)?
Its value is “(15.4) %”.

And the “Any TEAE, %” value ([1]; 100 mg (N = 26))?
The value was “(80.8) %”.

What about the Fibrosis improvement endpoint ([1]; 100 mg (N = 26)) of the same compound?
The Fibrosis improvement endpoint was 15.4%.

What about the Nash resolution endpoint ([1]; 100 mg (N = 26)) of the same compound?
The Nash resolution endpoint was 25.0%.

What about the “Abdominal pain upper, %” value ([1]; AEs >5%, 80 mg) of the same compound?
Its value is “(6.7) %”.

What about the “Abdominal pain, %” value ([1]; AEs >5%, 80 mg) of the same compound?
Its value is “(3.3) %”.

What about the “Arthralgia, %” value ([1]; AEs >5%, 80 mg) of the same compound?
The value was “(20.0) %”.

And the “Back pain, %” value ([1]; AEs >5%, 80 mg)?
Its value is “(13.3) %”.

And the “Constipation, %” value ([1]; AEs >5%, 80 mg)?
The value was “(13.3) %”.

And the “Diarrhea, %” value ([1]; AEs >5%, 80 mg)?
The value was “(26.7) %”.

What about the “Dizziness, %” value ([1]; AEs >5%, 80 mg) of the same compound?
Its value is “(6.7) %”.

And the “Fatigue, %” value ([1]; AEs >5%, 80 mg)?
Its value is “(10.0) %”.

What about the “Headache, %” value ([1]; AEs >5%, 80 mg) of the same compound?
The value was “(13.3) %”.

And the “Hypertension (AE), %” value ([1]; AEs >5%, 80 mg)?
Its value is “(3.3) %”.

What about the “Nausea, %” value ([1]; AEs >5%, 80 mg) of the same compound?
Its value is “(16.7) %”.

And the “Pruritus, %” value ([1]; AEs >5%, 80 mg)?
The value was “(6.7) %”.

And the “Pyrexia, %” value ([1]; AEs >5%, 80 mg)?
The value was “(6.7) %”.

And the “Rash, %” value ([1]; AEs >5%, 80 mg)?
Its value is “(10.0) %”.

What about the “Type 2 diabetes mellitus (AE), %” value ([1]; AEs >5%, 80 mg) of the same compound?
The value was “(3.3) %”.

And the “Urinary tract infection, %” value ([1]; AEs >5%, 80 mg)?
Its value is “(6.7) %”.

And the “Vomiting, %” value ([1]; AEs >5%, 80 mg)?
Its value is “(3.3) %”.

And the “Weight decreased, %” value ([1]; AEs >5%, 80 mg)?
The value was “(3.3) %”.

What about the “Abdominal pain upper, %” value ([1]; AEs >5%, 100 mg) of the same compound?
Its value is “(3.8) %”.

And the “Abdominal pain, %” value ([1]; AEs >5%, 100 mg)?
Its value is “(7.7) %”.

And the “Arthralgia, %” value ([1]; AEs >5%, 100 mg)?
Its value is “(7.7) %”.

What about the “Back pain, %” value ([1]; AEs >5%, 100 mg) of the same compound?
The value was “(11.5) %”.

And the “Constipation, %” value ([1]; AEs >5%, 100 mg)?
The value was “(7.7) %”.

And the “Cough, %” value ([1]; AEs >5%, 100 mg)?
The value was “(3.8) %”.

And the “Diarrhea, %” value ([1]; AEs >5%, 100 mg)?
The value was “(19.2) %”.

And the “Dizziness, %” value ([1]; AEs >5%, 100 mg)?
The value was “(7.7) %”.

And the “Fatigue, %” value ([1]; AEs >5%, 100 mg)?
The value was “(7.7) %”.

What about the “Nausea, %” value ([1]; AEs >5%, 100 mg) of the same compound?
Its value is “(7.7) %”.

What about the “Osteopenia, %” value ([1]; AEs >5%, 100 mg) of the same compound?
The value was “(7.7) %”.

And the “Pruritus, %” value ([1]; AEs >5%, 100 mg)?
Its value is “(15.4) %”.

And the “Rash, %” value ([1]; AEs >5%, 100 mg)?
The value was “(7.7) %”.

What about the “Type 2 diabetes mellitus (AE), %” value ([1]; AEs >5%, 100 mg) of the same compound?
Its value is “(3.8) %”.

And the “Urinary tract infection, %” value ([1]; AEs >5%, 100 mg)?
The value was “(15.4) %”.

What about the “Vomiting, %” value ([1]; AEs >5%, 100 mg) of the same compound?
The value was “(11.5) %”.

What about the “Weight decreased, %” value ([1]; AEs >5%, 100 mg) of the same compound?
Its value is “(11.5) %”.

What about the “total radioactive dose recovered in feces” value [2] of the same compound?
Its value is “approximately 67%”.

What about the “total radioactive dose recovered in urine” value [2] of the same compound?
Its value is 24%.

And the “unchanged labeled drug in feces” value [2]?
The value was “not detected”.

What about the “unchanged labeled drug, dose recovered in urine” value [2] of the same compound?
Its value is 1%.
